According to patent US8952157B2, “Apoptosis-inducing agents for the treatment of cancer and immune and autoimmune diseases” (AbbVie Inc., priority 2008, dated 2015):
Like-named read-outs stand apart in the source and are kept apart here.

Molecular target: GST-Bcl-2 (Homo sapiens (Human), UniProt P10415)
Experiment: Time Resolved-Fluorescence Resonance Energy Transfer (TR-FRET) Bcl-2 binding assay
In short: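 Competition TR-FRET: GST-Bcl-2 with fluorescent Bak peptide probe and Tb-anti-GST antibody, compounds serially diluted from 50 μM (2× start, 10% DMSO).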

[1] = GST-Bcl-2 1 nM, F-Bak peptide probe 100 nM, Tb-anti-GST antibody 1 nM, Ki by Wang's equation

Sequence of GST-Bcl-2 (P10415 whole entry): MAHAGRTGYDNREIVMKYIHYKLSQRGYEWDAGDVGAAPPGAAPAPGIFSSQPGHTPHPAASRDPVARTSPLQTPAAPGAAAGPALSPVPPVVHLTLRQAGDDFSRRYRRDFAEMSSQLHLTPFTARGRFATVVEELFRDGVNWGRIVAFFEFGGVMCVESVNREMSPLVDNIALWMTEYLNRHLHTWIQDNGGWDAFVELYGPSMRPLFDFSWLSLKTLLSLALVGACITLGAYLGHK

Structure (SMILES) | Ki [1] [nM] | Ki [nM]
CC1(C)CCC(CN2CCN(c3ccc(C(=O)NS(=O)(=O)c4ccc(NC5CCN(C6CCOCC6)CC5)c([N+](=O)[O-])c4)c(Oc4ccccc4Cl)c3)CC2)=C(c2ccc(Cl)cc2)C1 [Example 115, 2-(2-chlorophenoxy)-4-(4-{[2-(4-chlorophenyl)-4,4-dimethylcyclohex-1-en-1-yl]methyl}piperazin-1-yl)-N-({3-nitro-4-[(1-tetrahydro-2H-pyran-4-ylpiperidin-4-yl)amino]phenyl}sulfonyl)benzamide] | 0.042 | –
CN(C)CCCc1ccccc1Oc1cc(N2CCN(Cc3ccccc3-c3ccc(Cl)cc3)CC2)ccc1C(=O)NS(=O)(=O)c1ccc(NCC2CCOCC2)c([N+](=O)[O-])c1 [Example 28, 4-(4-((4′-chloro-1,1′-biphenyl-2-yl)methyl)piperazin-1-yl)-2-(2-(3-(dimethylamino)propyl)phenoxy)-N-((3-nitro-4-((tetrahydro-2H-pyran-4-ylmethyl)amino)phenyl)sulfonyl)benzamide] | 1.33 | –
CC1(C)CCC(CN2CCN(c3ccc(C(=O)NS(=O)(=O)c4ccc(NCC5(N)CCOCC5)c([N+](=O)[O-])c4)c(Oc4cccc(Cl)c4)c3)CC2)=C(c2ccc(Cl)cc2)C1 [Example 109, N-[(4-{[(4-aminotetrahydro-2H-pyran-4-yl)methyl]amino}-3-nitrophenyl)sulfonyl]-2-(3-chlorophenoxy)-4-(4-{[2-(4-chlorophenyl)-4,4-dimethylcyclohex-1-en-1-yl]methyl}piperazin-1-yl)benzamide] | 0.237 | –
CCN(Cc1cccc(Oc2cc(N3CCN(Cc4ccccc4-c4ccc(Cl)cc4)CC3)ccc2C(=O)NS(=O)(=O)c2ccc(NCC3CCOCC3)c([N+](=O)[O-])c2)c1)C(=O)OC(C)(C)C [Example 79, tert-butyl 3-(5-(4-((4′-chloro-1,1′-biphenyl-2-yl)methyl)piperazin-1-yl)-2-((((3-nitro-4-((tetrahydro-2H-pyran-4-ylmethyl)amino)phenyl)sulfonyl)amino)carbonyl)phenoxy)benzyl(ethyl)carbamate] | 99.8 | –
CN(C)C(=O)Cc1ccccc1Oc1cc(N2CCN(Cc3ccccc3-c3ccc(Cl)cc3)CC2)ccc1C(=O)NS(=O)(=O)c1ccc(NCC2CCOCC2)c([N+](=O)[O-])c1 [Example 27, 4-(4-((4′-chloro-1,1′-biphenyl-2-yl)methyl)piperazin-1-yl)-2-(2-(2-(dimethylamino)-2-oxoethyl)phenoxy)-N-((3-nitro-4-((tetrahydro-2H-pyran-4-ylmethyl)amino)phenyl)sulfonyl)benzamide] | 2.21 | –
CC1(C)CCC(CN2CCN(c3ccc(C(=O)NS(=O)(=O)c4ccc(NCC5CCOCC5)c([N+](=O)[O-])c4)c(Oc4ccc5[nH]cc(Cl)c5c4)c3)CC2)=C(c2ccc(Cl)cc2)C1 [Example 265, 2-[(3-chloro-1H-indol-5-yl)oxy]-4-(4-{[2-(4-chlorophenyl)-4,4-dimethylcyclohex-1-en-1-yl]methyl}piperazin-1-yl)-N-({3-nitro-4-[(tetrahydro-2H-pyran-4-ylmethyl)amino]phenyl}sulfonyl)benzamide] | 0.363 | –
Cn1cnc2cc(Oc3cc(N4CCN(Cc5ccccc5-c5ccc(Cl)cc5)CC4)ccc3C(=O)NS(=O)(=O)c3ccc(NCCCN4CCOCC4)c([N+](=O)[O-])c3)ccc21 [Example 102, 4-(4-((4′-chloro-1,1′-biphenyl-2-yl)methyl)piperazin-1-yl)-2-((1-methyl-1H-benzimidazol-5-yl)oxy)-N-((4-((3-morpholin-4-ylpropyl)amino)-3-nitrophenyl)sulfonyl)benzamide] | 43.5 | –
O=C(NS(=O)(=O)c1ccc(NCCCN2CCOCC2)c([N+](=O)[O-])c1)c1ccc(N2CCN(Cc3ccccc3-c3ccc(Cl)cc3)CC2)cc1Oc1cccc(N2CCOCC2)c1 [Example 69, 4-(4-((4′-chloro-1,1′-biphenyl-2-yl)methyl)piperazin-1-yl)-2-(3-morpholin-4-ylphenoxy)-N-((4-((3-morpholin-4-ylpropyl)amino)-3-nitrophenyl)sulfonyl)benzamide] | 8.25 | –
CN1CCN(Nc2ccc(S(=O)(=O)NC(=O)c3ccc(N4CCN(CC5=C(c6ccc(Cl)cc6)CC(C)(C)OC5)CC4)cc3Oc3cccc(Cl)c3)cc2[N+](=O)[O-])CC1 [Example 185, 2-(3-chlorophenoxy)-4-(4-{[4-(4-chlorophenyl)-6,6-dimethyl-5,6-dihydro-2H-pyran-3-yl]methyl}piperazin-1-yl)-N-({4-[(4-methylpiperazin-1-yl)amino]-3-nitrophenyl}sulfonyl)benzamide] | 0.083 | –
CC1(C)CCC(CN2CCN(c3ccc(C(=O)NS(=O)(=O)c4ccc(NC5CCN(C6CC6)CC5)c([N+](=O)[O-])c4)c(Oc4ccccc4F)c3)CC2)=C(c2ccc(Cl)cc2)C1 [Example 123, 4-(4-{[2-(4-chlorophenyl)-4,4-dimethylcyclohex-1-en-1-yl]methyl}piperazin-1-yl)-N-({4-[(1-cyclopropylpiperidin-4-yl)amino]-3-nitrophenyl}sulfonyl)-2-(2-fluorophenoxy)benzamide] | 0.11 | –
CN1CCC(Nc2ccc(S(=O)(=O)NC(=O)c3ccc(N4CCN(CC5=C(c6ccc(Cl)cc6)CC(C)(C)CC5)CC4)cc3Oc3cc(Cl)ccc3Cl)cc2[N+](=O)[O-])CC1 [Example 60, 4-(4-((2-(4-chlorophenyl)-4,4-dimethylcyclohex-1-en-1-yl)methyl)piperazin-1-yl)-2-(2,5-dichlorophenoxy)-N-((4-((1-methylpiperidin-4-yl)amino)-3-nitrophenyl)sulfonyl)benzamide] | 0.187 | –
CC1(C)CCC(CN2CCN(c3ccc(C(=O)NS(=O)(=O)c4ccc(N[C@H]5CC[C@H](N6CCOCC6)CC5)c([N+](=O)[O-])c4)c(Oc4cccc(Cl)c4)c3)CC2)=C(c2ccc(Cl)cc2)C1 [Example 205, Trans-2-(3-chlorophenoxy)-4-(4-{[2-(4-chlorophenyl)-4,4-dimethylcyclohex-1-en-1-yl]methyl}piperazin-1-yl)-N-({4-[(4-morpholin-4-ylcyclohexyl)amino]-3-nitrophenyl}sulfonyl)benzamide] | – | 0.153
CC1(C)CCC(CN2CCN(c3ccc(C(=O)NS(=O)(=O)c4ccc(NC5CCN(C6CCOCC6)CC5)c([N+](=O)[O-])c4)c(Oc4cccc(F)c4F)c3)CC2)=C(c2ccc(Cl)cc2)C1 [Example 49, 4-(4-((2-(4-chlorophenyl)-4,4-dimethylcyclohex-1-en-1-yl)methyl)piperazin-1-yl)-2-(2,3-difluorophenoxy)-N-((3-nitro-4-((1-tetrahydro-2H-pyran-4-ylpiperidin-4-yl)amino)phenyl)sulfonyl)benzamide] | 0.062 | –
CC1(C)CCC(CN2CCN(c3ccc(C(=O)NS(=O)(=O)c4ccc(NCC5CCOCC5)c([N+](=O)[O-])c4)c(Oc4ccc(N)nc4)c3)CC2)=C(c2ccc(Cl)cc2)C1 [Example 272, 2-[(6-aminopyridin-3-yl)oxy]-4-(4-{[2-(4-chlorophenyl)-4,4-dimethylcyclohex-1-en-1-yl]methyl}piperazin-1-yl)-N-({3-nitro-4-[(tetrahydro-2H-pyran-4-ylmethyl)amino]phenyl}sulfonyl)benzamide] | 1.24 | –
CN(C)CCOc1ccc(-c2ccc(Cl)cc2)c(CN2CCN(c3ccc(C(=O)NS(=O)(=O)c4ccc(NC5CCN(C)CC5)c([N+](=O)[O-])c4)c(Oc4cccc(Cl)c4)c3)CC2)c1 [Example 37, 4-(4-((4′-chloro-4-(2-(dimethylamino)ethoxy)-1,1′-biphenyl-2-yl)methyl)piperazin-1-yl)-2-(3-chlorophenoxy)-N-((4-((1-methylpiperidin-4-yl)amino)-3-nitrophenyl)sulfonyl)benzamide] | 0.005 | –
CN1C(C)(C)CC(Nc2ccc(S(=O)(=O)NC(=O)c3ccc(N4CCN(CC5=C(c6ccc(Cl)cc6)CC(C)(C)CC5)CC4)cc3Oc3ccccc3Cl)cc2[N+](=O)[O-])CC1(C)C [Example 48, 2-(2-chlorophenoxy)-4-(4-((2-(4-chlorophenyl)-4,4-dimethylcyclohex-1-en-1-yl)methyl)piperazin-1-yl)-N-((3-nitro-4-((1,2,2,6,6-pentamethylpiperidin-4-yl)amino)phenyl)sulfonyl)benzamide] | 0.053 | –
CC1(C)CC(c2ccc(Cl)cc2)=C(CN2CCN(c3ccc(C(=O)NS(=O)(=O)c4cnc(OCC5(F)CCOCC5)c(Cl)c4)c(Oc4cnc(N)c(Cl)c4)c3)CC2)CO1 [Example 390, 2-[(6-amino-5-chloropyridin-3-yl)oxy]-N-({5-chloro-6-[(4-fluorotetrahydro-2H-pyran-4-yl)methoxy]pyridin-3-yl}sulfonyl)-4-(4-{[4-(4-chlorophenyl)-6,6-dimethyl-5,6-dihydro-2H-pyran-3-yl]methyl}piperazin-1-yl)benzamide] | < 0.01 | –
CN(C)CCCc1c[nH]c2ccc(Oc3cc(N4CCN(Cc5ccccc5-c5ccc(Cl)cc5)CC4)ccc3C(=O)NS(=O)(=O)c3ccc(NCC4CCOCC4)c([N+](=O)[O-])c3)cc12 [Example 106, 4-(4-((4′-chloro-1,1′-biphenyl-2-yl)methyl)piperazin-1-yl)-2-((3-(3-(dimethylamino)propyl)-1H-indol-5-yl)oxy)-N-((3-nitro-4-((tetrahydro-2H-pyran-4-ylmethyl)amino)phenyl)sulfonyl)benzamide] | 215 | –
CC1(C)CCC(CN2CCN(c3ccc(C(=O)NS(=O)(=O)c4ccc(OCC5(F)CCOCC5)c([N+](=O)[O-])c4)c(Oc4cccc5c4CC(=O)N5)c3)CC2)=C(c2ccc(Cl)cc2)C1 [Example 313, 4-(4-{[2-(4-chlorophenyl)-4,4-dimethylcyclohex-1-en-1-yl]methyl}piperazin-1-yl)-N-({4-[(4-fluorotetrahydro-2H-pyran-4-yl)methoxy]-3-nitrophenyl}sulfonyl)-2-[(2-oxo-2,3-dihydro-1H-indol-4-yl)oxy]benzamide] | < 0.01 | –
CN1CCN(Nc2ccc(S(=O)(=O)NC(=O)c3ccc(N4CCN(CC5=C(c6ccc(Cl)cc6)CC(C)(C)CC5)CC4)cc3Oc3ccc(O)cc3Cl)cc2[N+](=O)[O-])CC1 [Example 208, 2-(2-chloro-4-hydroxyphenoxy)-4-(4-{[2-(4-chlorophenyl)-4,4-dimethylcyclohex-1-en-1-yl]methyl}piperazin-1-yl)-N-({4-[(4-methylpiperazin-1-yl)amino]-3-nitrophenyl}sulfonyl)benzamide] | 0.261 | –
